Measurements taken from PMC8460509, “Imitating evolution’s tinkering by protein engineering reveals extension of human galectin-7 activity” (Histochemistry and cell biology, 2021).

Experiments:
Assay in all cases: isothermal titration calorimetry
Gal-7 = molecular target: T1, Gal-7 (Homo sapiens, UniProt P47929); type: binding; settings: 25 °C
T1 construct: gene LGALS7; wild type, recombinant from E. coli, lactosylated Sepharose; non-covalent homodimer
From the text: isothermal titration calorimetry on Gal-7 | TF) antigen CD176) interacts with Gal-7’s CRD (Table S15, Fig. S11) | The data obtained with Lac (Table S14) corroborated the conclusions on activity

Gal-3–8S–Gal-7 = molecular target: T2, Gal-3–8S–Gal-7; type: binding, Homo sapiens; settings: 25 °C, pH 7.2, 20 mM phosphate, 10 mM NaCl, 10 mM beta-mercaptoethanol; one-set-of-sites, n fitted
T2 construct: gene LGALS3; one polypeptide; recombinant from E. coli
From the text: isothermal titration calorimetry on Gal-3–8S–Gal-7

Gal-7–Gal-3 = molecular target: T3, Gal-7–Gal-3; type: binding, Homo sapiens; settings: 25 °C, pH 7.2, 20 mM phosphate, 10 mM NaCl, 10 mM beta-mercaptoethanol; one-set-of-sites, n fitted
T3 construct: gene LGALS7; one polypeptide; recombinant from E. coli
From the text: isothermal titration calorimetry on Gal-7–Gal-3

Gal-3–Gal-7 = molecular target: T4, Gal-3–Gal-7; type: binding, Homo sapiens; settings: 25 °C, pH 7.2, 20 mM phosphate, 10 mM NaCl, 10 mM beta-mercaptoethanol; one-set-of-sites, n fitted
T4 construct: gene LGALS3; one polypeptide; recombinant from E. coli
From the text: isothermal titration calorimetry on Gal-3–Gal-7

Gal-7–8S–Gal-3 = molecular target: T5, Gal-7–8S–Gal-3; type: binding, Homo sapiens; settings: 25 °C, pH 7.2, 20 mM phosphate, 10 mM NaCl, 10 mM beta-mercaptoethanol; one-set-of-sites, n fitted; LacNAc 2 mM
T5 construct: gene LGALS7; one polypeptide; recombinant from E. coli
From the text: isothermal titration calorimetry on Gal-7–8S–Gal-3

Gal-7–Gal-7 = molecular target: T6, Gal-7–Gal-7 (Homo sapiens, UniProt P47929); type: binding; settings: 25 °C, pH 7.2, 20 mM phosphate, 10 mM NaCl, 10 mM beta-mercaptoethanol; one-set-of-sites, n fitted; LacNAc 10 mM
T6 construct: gene LGALS7; two Gal-7 CRDs directly fused in one polypeptide (covalent homodimer, no added residues); recombinant from E. coli
From the text: isothermal titration calorimetry on Gal-7–Gal-7

Gal-7–Gal-1 = molecular target: T7, Gal-7–Gal-1; type: binding, Homo sapiens; settings: 25 °C, pH 7.2, 20 mM phosphate, 10 mM NaCl, 10 mM beta-mercaptoethanol; one-set-of-sites, n fitted
T7 construct: gene LGALS7; direct fusion, Gal-7 CRD N-terminal, Gal-1 CRD C-terminal; one polypeptide; recombinant from E. coli
From the text: isothermal titration calorimetry on Gal-7–Gal-1

Gal-7–8S–Gal-7 = molecular target: T8, Gal-7–8S–Gal-7 (Homo sapiens, UniProt P47929); type: binding; settings: 25 °C, pH 7.2, 20 mM phosphate, 10 mM NaCl, 10 mM beta-mercaptoethanol; one-set-of-sites, n fitted
T8 construct: gene LGALS7; two Gal-7 CRDs in one polypeptide joined by the 33-amino-acid linker of Gal-8S (covalent homodimer); recombinant from E. coli
From the text: isothermal titration calorimetry on Gal-7–8S–Gal-7

Gal-1–8S–Gal-7 = molecular target: T9, Gal-1–8S–Gal-7; type: binding, Homo sapiens; settings: 25 °C, pH 7.2, 20 mM phosphate, 10 mM NaCl, 10 mM beta-mercaptoethanol; one-set-of-sites, n fitted
T9 construct: gene LGALS1; Gal-1 CRD N-terminal, 33-amino-acid linker of Gal-8S, Gal-7 CRD C-terminal; one polypeptide; recombinant from E. coli
From the text: isothermal titration calorimetry on Gal-1–8S–Gal-7

Gal-1–Gal-7 = molecular target: T10, Gal-1–Gal-7; type: binding, Homo sapiens; settings: 25 °C, pH 7.2, 20 mM phosphate, 10 mM NaCl, 10 mM beta-mercaptoethanol; one-set-of-sites, n fitted
T10 construct: gene LGALS1; direct fusion, Gal-1 CRD N-terminal, Gal-7 CRD C-terminal; one polypeptide; recombinant from E. coli
From the text: isothermal titration calorimetry on Gal-1–Gal-7

T1 sequence (P47929 whole entry): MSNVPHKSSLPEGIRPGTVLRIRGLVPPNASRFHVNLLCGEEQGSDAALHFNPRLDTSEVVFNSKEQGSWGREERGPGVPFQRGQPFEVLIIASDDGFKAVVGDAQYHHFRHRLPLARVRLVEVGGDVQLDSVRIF
T6 sequence (P47929 whole entry, the tested form may be a part): as the sequence (P47929 whole entry) above
T8 sequence (P47929 whole entry): as above

Row | Kd (Gal-7; pH 7.2, 20 mM phosphate, 10 mM NaCl, 10 mM beta-mercaptoethanol, one-set-of-sites, n fitted) [µM] | Kd (Gal-3–8S–Gal-7) [µM] | Kd (Gal-7–Gal-3) [µM] | Kd (Gal-3–Gal-7) [µM] | Kd (Gal-7–8S–Gal-3) [µM] | Kd (Gal-7–Gal-7) [µM] | Kd (Gal-7–Gal-1) [µM] | Kd (Gal-7–8S–Gal-7) [µM] | Kd (Gal-1–8S–Gal-7) [µM] | Kd (Gal-1–Gal-7) [µM] | Kd (Gal-7; pH 7.2) [µM] | SMILES
1 | 316 ± 5.88 | 68.6 ± 6.56 | 86.5 ± 5.75 | 96.2 ± 2.1 | 32.5 ± 0.81 | 261 ± 6.21 | 103 ± 6.11 | 287 ± 9.55 | 162 ± 3.79 | 175 ± 2.11 | – | CC(=O)N[C@H]1C(O)O[C@H](CO)[C@@H](O[C@@H]2O[C@H](CO)[C@H](O)[C@H](O)[C@H]2O)[C@@H]1O (stereo partly drawn) [LacNAc]
2 | – | – | – | – | – | – | – | – | – | – | 323 ± 5.7 | OC[C@H]1O[C@@H](O[C@H]2[C@H](O)[C@@H](O)C(O)O[C@@H]2CO)[C@H](O)[C@@H](O)[C@H]1O (stereo partly drawn) [Lac]
3 | – | – | – | – | – | – | – | – | – | – | 1250 ± 126 | CC(=O)N[C@H]1C(O)O[C@H](CO)[C@H](O)[C@@H]1O[C@@H]1O[C@H](CO)[C@H](O)[C@H](O)[C@H]1O (stereo partly drawn) [core 1 mucin-type O-glycan disaccharide]
